Measured values: the supplement of paper PMC11208160

assay: recombinant barcode read abundance after kanamycin selection (control-corrected) (log10(CPM+1)); higher = more efficient recombination; sequences stand for … in AGTGCAGAGAAAATCGGCCAGTTTTCTCTGCCTGCAGTCCGCATGCCGT…AGATTTATGCAGCGGACTGCCTTTCTCCCAAAGTGATAAACCGGACAGTATCATGGACCGGTTTTCCCGGTAATCCGTATTTGCAAGGTTGGTTTCACT; site = the 11-nt target
Method in brief: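 Targets and IS621 bridge RNA target-binding loops were paired in oligos, each with a promoter, a barcode and the J23119-driven first 104 bridge RNA bases. A vector carrying the remaining 73 bp and a T7-inducible recombinase received these by Gibson cloning, and the pool was co-electroporated into E. coli with a donor plasmid. Duplicate plates contained chloramphenicol/ampicillin LB agar (control) or chloramphenicol/ampicillin/kanamycin with 0.1 mM IPTG. Recombination efficiency comes from averaged, control-corrected counts per million of recombinant-junction barcodes, reported as log10(CPM+1).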
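Also: IS621 recombinase and bridge RNA in Escherichia coli cells.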

| Sequence | recombinant barcode read abundance (log10) |
| --- | --- |
| GAGTCTACTTGGGTTCTAACCTGTTGCTT (site GAATCTACTAA) | 0.0356 |
| GAGTCTACTTGGGTTCTAACCTGTTGCTT (site GACTCTACTAA) | 0.813 |
| GAGTCTACTTGGGTTCTAACCTGTTGCTT (site GAGTCTACTAA) | 0 |
| GAGTCTACTTGGGTTCTAACCTGTTGCTT (site GATTCTACTAA) | 0.0603 |
| GAGTCTTCTTGGGTTCTAACCTGTTGCCA (site CTACAGGCTGT) | 0.281 |
| GAGTCTTCTTGGGTTCTAACCTGTTGCCA (site GAGTCTTCTTG) | 0.147 |
| GAGTCTTCTTGGGTTCTAACCTGTTGCTA (site GAGTACTCTTA) | 0.0434 |
| GAGTCTTCTTGGGTTCTAACCTGTTGCTA (site GAGTCTTCTTA) | 0.0462 |
| GAGTGCTCTTGGGTTCTAACCTGTTGCAG (site GAGCGCTCTCT) | 0.676 |
| GAGTGCTCTTGGGTTCTAACCTGTTGCAG (site GAGTGCTCTCT) | 1.26 |
| GAGTGGACTTGGGTTCTAACCTGTTGCGT (site GACCGGACTAC) | 0.349 |
| GAGTGGACTTGGGTTCTAACCTGTTGCGT (site GAGTGGACTAC) | 2.7 |
| GAGTGTCCTTGGGTTCTAACCTGTTGCGA (site GAGTGTCCTTC) | 1.87 |
| GAGTGTCCTTGGGTTCTAACCTGTTGCGA (site GTGTCTCCTTC) | 0.0874 |
| GAGTTCACTTGGGTTCTAACCTGTTGCAG (site AGTCGTTCTAG) | 0.141 |
| GAGTTCACTTGGGTTCTAACCTGTTGCAG (site GAGTTCACTCT) | 1.79 |
| GAGTTGCCTTGGGTTCTAACCTGTTGCCT (site GAGTTGCCTAG) | 1.05 |
| GAGTTGCCTTGGGTTCTAACCTGTTGCCT (site GCGTTGCCTAG) | 0.107 |
| GAGTTGCCTTGGGTTCTAACCTGTTGCCT (site GGGTTGCCTAG) | 0.0448 |
| GAGTTGCCTTGGGTTCTAACCTGTTGCCT (site GTGTTGCCTAG) | 1.59 |
| GAGTTGCCTTGGGTTCTAACCTGTTGCGG (site GAGTAGCCTCC) | 0.0344 |
| GAGTTGCCTTGGGTTCTAACCTGTTGCGG (site GAGTCGCCTCC) | 0.25 |

| Sequence | recombinant barcode read abundance (log10) |
| --- | --- |
| GAGTTGCCTTGGGTTCTAACCTGTTGCGG (site GAGTGGCCTCC) | 0.101 |
| GAGTTGCCTTGGGTTCTAACCTGTTGCGG (site GAGTTGCCTCC) | 2.32 |
| GAGTTTGCTTGGGTTCTAACCTGTTGCCT (site GAGTTTGCTAG) | 0.572 |
| GAGTTTGCTTGGGTTCTAACCTGTTGCCT (site GCGTTTGCTAG) | 0.0311 |
| GAGTTTGCTTGGGTTCTAACCTGTTGCCT (site GGGTTTGCTAG) | 0.124 |
| GAGTTTGCTTGGGTTCTAACCTGTTGCCT (site GTGTTTGCTAG) | 0.0382 |
| GATACGGCTTGGGTTCTAACCTGTTGCCT (site GATACGACTAG) | 0.169 |
| GATACGGCTTGGGTTCTAACCTGTTGCCT (site GATACGCCTAG) | 0 |
| GATACGGCTTGGGTTCTAACCTGTTGCCT (site GATACGGCTAG) | 0.149 |
| GATACGGCTTGGGTTCTAACCTGTTGCCT (site GATACGTCTAG) | 0.0137 |
| GATAGGCCTTGGGTTCTAACCTGTTGCCT (site GATAGGCCTAG) | 0.101 |
| GATAGGCCTTGGGTTCTAACCTGTTGCCT (site GTTAGGCCTAG) | 0.031 |
| GATAGTCCTTGGGTTCTAACCTGTTGCCT (site GATAGTACTAG) | 0.122 |
| GATAGTCCTTGGGTTCTAACCTGTTGCCT (site GATAGTCCTAG) | 0.322 |
| GATAGTCCTTGGGTTCTAACCTGTTGCCT (site GATAGTGCTAG) | 0.161 |
| GATAGTCCTTGGGTTCTAACCTGTTGCCT (site GATAGTTCTAG) | 0.159 |
| GATATAGCTTGGGTTCTAACCTGTTGCGG (site GATATAGCTCC) | 2.31 |
| GATATAGCTTGGGTTCTAACCTGTTGCGG (site GTGATAGCTCC) | 0.0376 |
| GATCCCACTTGGGTTCTAACCTGTTGCCT (site GATCCCACTAG) | 1.34 |
| GATCCCACTTGGGTTCTAACCTGTTGCCT (site GATGCCACTAG) | 0.192 |
| GATCGATCTTGGGTTCTAACCTGTTGCCT (site GATCGATCTAA) | 0.0447 |
